Source: US20250282799A1, “SUBSTITUTED PYRIDO[4,3-d]PYRIMIDINES AS KRAS MODULATORS” (Alterome Therapeutics, Inc., priority 2023, published 2025)

Each compound was assayed against KRAS (G12V)/CRAF (Homo sapiens (Human), UniProt P01116, G12V) (assay: TR-FRET biochemical KRAS:CRAF protein:protein interaction assay, KRAS (G12V)). Settings: GMPPNP loaded Biotin-KRAS (G12V), FLAG CRAF RBD; read-out: TR-Fret_PPI KRAS (G12V)/CRAF IC50.
Type: binding
How it was run: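 Compound (10-point 3-fold series, 1% DMSO final) preincubated 30 min at room temperature with 20 nM biotin-KRAS mutant loaded with GMPPNP, in Hepes pH7.3 buffer with 5 mM MgCl2 and 10 uM GMP-PNP. Then 100 nM FLAG-CRAF RBD for 150 min, 1 nM Tb-anti-FLAG/5 nM SA-XL665 for 90 min; IC50 from normalized 665/620 ratio, 4-parameter fit.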

KRAS (G12V)/CRAF, sequence (P01116-2 other isoform, or with tags, fused parts or gaps G12V): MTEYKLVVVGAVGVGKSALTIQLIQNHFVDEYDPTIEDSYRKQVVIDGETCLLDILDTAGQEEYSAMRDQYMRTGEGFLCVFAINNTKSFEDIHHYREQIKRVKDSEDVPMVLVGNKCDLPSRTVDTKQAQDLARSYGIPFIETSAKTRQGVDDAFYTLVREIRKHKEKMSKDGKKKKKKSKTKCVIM

[2H]C([2H])(Oc1nc(N2CCOC[C@H]3[C@H](F)[C@H]32)c2cnc(-c3cc(N)cc4cc(F)c(F)c(C#C)c34)c(F)c2n1)[C@@]12CCCN1C[C@H](F)C2 [Example 28, 5-Ethynyl-6,7-difluoro-4-(8-fluoro-4-((1S,7S,8S)-8-fluoro-5-oxa-2-azabicyclo[5.1.0]octan-2-yl)-2-(((2R,7aS)-2-fluorotetrahydro-1H-pyrrolizin-7a(5H)-yl)methoxy-d2)pyrido[4,3-d]pyrimidin-7-yl)naphthalen-2-amine] was tested. Which IC50 did it give?
The IC50 was 89.7 nM.

[2H]C([2H])(Oc1nc(N2CCCC[C@H]3[C@H](F)[C@H]32)c2cnc(-c3cc(N)cc4ccc(F)c(C#C)c34)c(F)c2n1)[C@@]12CCCN1C[C@H](F)C2 [Example 82, 5-Ethynyl-6-fluoro-4-(8-fluoro-4-((1S,7R,8S)-8-fluoro-2-azabicyclo[5.1.0]octan-2-yl)-2-(((2R,7aS)-2-fluorotetrahydro-1H-pyrrolizin-7a(5H)-yl)methoxy-d2)pyrido[4,3-d]pyrimidin-7-yl)naphthalen-2-amine] was tested. Which IC50 did it give?
Its IC50 is 39.2 nM.

For [2H]C([2H])(Oc1nc(N2CCCC[C@H]3[C@H](F)[C@H]32)c2cnc(-c3cc(N)cc4cc(F)c(F)c(C#C)c34)c(F)c2n1)[C@@]12CCCN1C[C@H](F)C2 [Example 16, 5-Ethynyl-6,7-difluoro-4-(8-fluoro-4-((1S,7R,8S)-8-fluoro-2-azabicyclo[5.1.0]octan-2-yl)-2-(((2R,7aS)-2-fluorotetrahydro-1H-pyrrolizin-7a(5H)-yl)methoxy-d2)pyrido[4,3-d]pyrimidin-7-yl)naphthalen-2-amine], which IC50 is on record?
Its IC50 is 56.7 nM.

With [2H]C([2H])(Oc1nc(N2CCOC[C@H]3[C@H](F)[C@H]32)c2cnc(-c3cc(N)cc4ccc(F)c(C#C)c34)c(F)c2n1)[C@@]12CCCN1C[C@H](F)C2 [Example 87, 5-Ethynyl-6-fluoro-4-(8-fluoro-4-((1S,7S,8S)-8-fluoro-5-oxa-2-azabicyclo[5.1.0]octan-2-yl)-2-(((2R,7aS)-2-fluorotetrahydro-1H-pyrrolizin-7a(5H)-yl)methoxy-d2)pyrido[4,3-d]pyrimidin-7-yl)naphthalen-2-amine] as the compound, how does the IC50 read?
Its IC50 is 60 nM.
